Measurements reported in paper PMC4515243, “Phase 1 pharmacokinetic study of the oral pan-AKT inhibitor MK-2206 in Japanese patients with advanced solid tumors” (Cancer Chemotherapy and Pharmacology, 2015).
Values joined by “and” are separate entries in the source; they are usually repeats but may differ in a detail not shown here. Equal values may be shown once.

Test system: Japanese patients with advanced solid tumors
Assay: phase 1 safety and tolerability (DLT, adverse events) in Japanese patients;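 further: toxicities graded by NCI CTCAE version 3.0, treatment given until disease progression or unacceptable toxicity, three to nine patients enrolled per dose level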
[1] = all cohorts (n = 24), all treatment cycles

NC1(c2ccc(-c3nc4ccn5c(=O)[nH]nc5c4cc3-c3ccccc3)cc2)CCC1 [MK-2206]
14/24 and 14: Stomatitis, drug-related adverse event, patients (Total (n = 24), All grades)
8: Leukopenia, drug-related adverse event, patients (200 mg QW (n = 9), All grades)
37.5%: lymphopenia related to MK-2206, percent of patients [1] | neutropenia related to MK-2206, percent of patients [1]
No treatment-related deaths: treatment-related deaths (all cohorts)
20/24 and 20: Rash, drug-related adverse event, patients (Total (n = 24), All grades)
9/24 and 9: Lymphopenia, drug-related adverse event, patients (Total (n = 24), All grades) | Neutropenia, drug-related adverse event, patients (Total (n = 24), All grades)
2: Dry skin, drug-related adverse event, patients (200 mg QW (n = 9), All grades) | Hypoalbuminemia, drug-related adverse event, patients (200 mg QW (n = 9), All grades) | Hypokalemia, drug-related adverse event, patients (200 mg QW (n = 9), All grades) | Lymphopenia, drug-related adverse event, patients (200 mg QW (n = 9), All grades) | Palmar-plantar erythrodysaesthesia syndrome, drug-related adverse event, patients (200 mg QW (n = 9), All grades) | Erythema multiforme, drug-related adverse event, patients (200 mg QW (n = 9), Grades 3–5) | Hyperglycemia, drug-related adverse event, patients (200 mg QW (n = 9), Grades 3–5) | Lymphopenia, drug-related adverse event, patients (200 mg QW (n = 9), Grades 3–5) | Erythema multiforme, drug-related adverse event, patients (Total (n = 24), Grades 3–5) | Hyperglycemia, drug-related adverse event, patients (Total (n = 24), Grades 3–5)
16/24 and 16: Insulin c-peptide increased, drug-related adverse event, patients (Total (n = 24), All grades)
6: Blood creatinine increased, drug-related adverse event, patients (200 mg QW (n = 9), All grades) | Hyperglycemia, drug-related adverse event, patients (200 mg QW (n = 9), All grades) | Rash, drug-related adverse event, patients (200 mg QW (n = 9), All grades) | Stomatitis, drug-related adverse event, patients (200 mg QW (n = 9), All grades) | Lymphopenia, drug-related adverse event, patients (Total (n = 24), Grades 3–5)
One patient: patients who discontinued treatment because of grade 2 rash (200 mg QW)
10: Fatigue, drug-related adverse event, patients (Total (n = 24), All grades) | Pruritus, drug-related adverse event, patients (Total (n = 24), All grades)
11 days: time until onset of DLTs (200 mg QW, grade 3 hyperglycemia and grade 3 erythema multiforme)
13/24 and 13: Eosinophilia, drug-related adverse event, patients (Total (n = 24), All grades) | Pyrexia, drug-related adverse event, patients (Total (n = 24), All grades)
50.0%: hyperglycemia related to MK-2206, percent of patients [1] | leukopenia related to MK-2206, percent of patients [1]
33.3%: elevated blood creatinine level related to MK-2206, percent of patients [1]
12/24 and 12: Hyperglycemia, drug-related adverse event, patients (Total (n = 24), All grades) | Leukopenia, drug-related adverse event, patients (Total (n = 24), All grades)
8/24 and 8: Blood creatinine increased, drug-related adverse event, patients (Total (n = 24), All grades)
3: ALT increased, drug-related adverse event, patients (200 mg QW (n = 9), All grades) | Diarrhea, drug-related adverse event, patients (200 mg QW (n = 9), All grades) | Nausea, drug-related adverse event, patients (200 mg QW (n = 9), All grades) | Vomiting, drug-related adverse event, patients (200 mg QW (n = 9), All grades)
4: Decreased appetite, drug-related adverse event, patients (200 mg QW (n = 9), All grades) | Eosinophilia, drug-related adverse event, patients (200 mg QW (n = 9), All grades) | Erythema multiforme, drug-related adverse event, patients (200 mg QW (n = 9), All grades) | Fatigue, drug-related adverse event, patients (200 mg QW (n = 9), All grades) | HbA1C increased, drug-related adverse event, patients (200 mg QW (n = 9), All grades) | Hypernatremia, drug-related adverse event, patients (200 mg QW (n = 9), All grades) | Localized edema, drug-related adverse event, patients (200 mg QW (n = 9), All grades) | Neutropenia, drug-related adverse event, patients (200 mg QW (n = 9), All grades) | ALT increased, drug-related adverse event, patients (Total (n = 24), All grades) | Erythema multiforme, drug-related adverse event, patients (Total (n = 24), All grades) | Hypoalbuminemia, drug-related adverse event, patients (Total (n = 24), All grades) | Hypokalemia, drug-related adverse event, patients (Total (n = 24), All grades) | Localized edema, drug-related adverse event, patients (Total (n = 24), All grades) | Palmar-plantar erythrodysaesthesia syndrome, drug-related adverse event, patients (Total (n = 24), All grades) | Vomiting, drug-related adverse event, patients (Total (n = 24), All grades)
83.3%: rash related to MK-2206, percent of patients [1]
66.7%: elevated insulin c-peptide level related to MK-2206, percent of patients [1]
Three of the nine: patients with DLTs during Cycle 1 (200 mg QW)
41.7%: diarrhea related to MK-2206, percent of patients [1]
5: Eosinophil count increased, drug-related adverse event, patients (200 mg QW (n = 9), All grades) | Insulin c-peptide increased, drug-related adverse event, patients (200 mg QW (n = 9), All grades) | Pruritus, drug-related adverse event, patients (200 mg QW (n = 9), All grades) | Pyrexia, drug-related adverse event, patients (200 mg QW (n = 9), All grades) | Dry skin, drug-related adverse event, patients (Total (n = 24), All grades) | Hypernatremia, drug-related adverse event, patients (Total (n = 24), All grades) | Nausea, drug-related adverse event, patients (Total (n = 24), All grades)
10 days: time until onset of DLTs (200 mg QW, grade 3 facial edema and grade 3 erythema multiforme) | time until onset of DLT (200 mg QW, grade 4 hyponatremia)
1: ALT increased, drug-related adverse event, patients (200 mg QW (n = 9), Grades 3–5) | Decreased appetite, drug-related adverse event, patients (200 mg QW (n = 9), Grades 3–5) | Hypernatremia, drug-related adverse event, patients (200 mg QW (n = 9), Grades 3–5) | Leukopenia, drug-related adverse event, patients (200 mg QW (n = 9), Grades 3–5) | Nausea, drug-related adverse event, patients (200 mg QW (n = 9), Grades 3–5) | ALT increased, drug-related adverse event, patients (Total (n = 24), Grades 3–5) | Decreased appetite, drug-related adverse event, patients (Total (n = 24), Grades 3–5) | Diarrhea, drug-related adverse event, patients (Total (n = 24), Grades 3–5) | Hypernatremia, drug-related adverse event, patients (Total (n = 24), Grades 3–5) | Leukopenia, drug-related adverse event, patients (Total (n = 24), Grades 3–5) | Nausea, drug-related adverse event, patients (Total (n = 24), Grades 3–5) | Neutropenia, drug-related adverse event, patients (Total (n = 24), Grades 3–5) | Rash, drug-related adverse event, patients (Total (n = 24), Grades 3–5)
7: Decreased appetite, drug-related adverse event, patients (Total (n = 24), All grades) | Eosinophil count increased, drug-related adverse event, patients (Total (n = 24), All grades) | HbA1C increased, drug-related adverse event, patients (Total (n = 24), All grades)
0: Eosinophilia, drug-related adverse event, patients (135 mg QW (n = 3), Grades 3–5) | Erythema multiforme, drug-related adverse event, patients (135 mg QW (n = 3), Grades 3–5) | Fatigue, drug-related adverse event, patients (135 mg QW (n = 3), Grades 3–5) | HbA1C increased, drug-related adverse event, patients (135 mg QW (n = 3), Grades 3–5) | Hyperglycemia, drug-related adverse event, patients (135 mg QW (n = 3), Grades 3–5) | Hypernatremia, drug-related adverse event, patients (135 mg QW (n = 3), Grades 3–5) | Hypoalbuminemia, drug-related adverse event, patients (135 mg QW (n = 3), Grades 3–5) | Hypokalemia, drug-related adverse event, patients (135 mg QW (n = 3), Grades 3–5) | Insulin c-peptide increased, drug-related adverse event, patients (135 mg QW (n = 3), Grades 3–5) | Leukopenia, drug-related adverse event, patients (135 mg QW (n = 3), Grades 3–5) | Localized edema, drug-related adverse event, patients (135 mg QW (n = 3), Grades 3–5) | Lymphopenia, drug-related adverse event, patients (135 mg QW (n = 3), Grades 3–5) | Nausea, drug-related adverse event, patients (135 mg QW (n = 3), Grades 3–5) | Neutropenia, drug-related adverse event, patients (135 mg QW (n = 3), Grades 3–5) | Palmar-plantar erythrodysaesthesia syndrome, drug-related adverse event, patients (135 mg QW (n = 3), Grades 3–5) | Pruritus, drug-related adverse event, patients (135 mg QW (n = 3), Grades 3–5) | Pyrexia, drug-related adverse event, patients (135 mg QW (n = 3), Grades 3–5) | Rash, drug-related adverse event, patients (135 mg QW (n = 3), Grades 3–5) | Stomatitis, drug-related adverse event, patients (135 mg QW (n = 3), Grades 3–5) | Vomiting, drug-related adverse event, patients (135 mg QW (n = 3), Grades 3–5) | Blood creatinine increased, drug-related adverse event, patients (200 mg QW (n = 9), Grades 3–5) | Diarrhea, drug-related adverse event, patients (200 mg QW (n = 9), Grades 3–5) | Dry skin, drug-related adverse event, patients (200 mg QW (n = 9), Grades 3–5) | Eosinophil count increased, drug-related adverse event, patients (200 mg QW (n = 9), Grades 3–5) | Eosinophilia, drug-related adverse event, patients (200 mg QW (n = 9), Grades 3–5) | Fatigue, drug-related adverse event, patients (200 mg QW (n = 9), Grades 3–5) | HbA1C increased, drug-related adverse event, patients (200 mg QW (n = 9), Grades 3–5) | Hypoalbuminemia, drug-related adverse event, patients (200 mg QW (n = 9), Grades 3–5) | Hypokalemia, drug-related adverse event, patients (200 mg QW (n = 9), Grades 3–5) | Insulin c-peptide increased, drug-related adverse event, patients (200 mg QW (n = 9), Grades 3–5) | Localized edema, drug-related adverse event, patients (200 mg QW (n = 9), Grades 3–5) | Neutropenia, drug-related adverse event, patients (200 mg QW (n = 9), Grades 3–5) | Palmar-plantar erythrodysaesthesia syndrome, drug-related adverse event, patients (200 mg QW (n = 9), Grades 3–5) | Pruritus, drug-related adverse event, patients (200 mg QW (n = 9), Grades 3–5) | Pyrexia, drug-related adverse event, patients (200 mg QW (n = 9), Grades 3–5) | Rash, drug-related adverse event, patients (200 mg QW (n = 9), Grades 3–5) | Stomatitis, drug-related adverse event, patients (200 mg QW (n = 9), Grades 3–5) | Vomiting, drug-related adverse event, patients (200 mg QW (n = 9), Grades 3–5) | Blood creatinine increased, drug-related adverse event, patients (Total (n = 24), Grades 3–5) | Dry skin, drug-related adverse event, patients (Total (n = 24), Grades 3–5) | Eosinophil count increased, drug-related adverse event, patients (Total (n = 24), Grades 3–5) | Eosinophilia, drug-related adverse event, patients (Total (n = 24), Grades 3–5) | Fatigue, drug-related adverse event, patients (Total (n = 24), Grades 3–5) | HbA1C increased, drug-related adverse event, patients (Total (n = 24), Grades 3–5) | Hypoalbuminemia, drug-related adverse event, patients (Total (n = 24), Grades 3–5) | Hypokalemia, drug-related adverse event, patients (Total (n = 24), Grades 3–5) | Insulin c-peptide increased, drug-related adverse event, patients (Total (n = 24), Grades 3–5) | Localized edema, drug-related adverse event, patients (Total (n = 24), Grades 3–5) | Palmar-plantar erythrodysaesthesia syndrome, drug-related adverse event, patients (Total (n = 24), Grades 3–5) | Pruritus, drug-related adverse event, patients (Total (n = 24), Grades 3–5) | Pyrexia, drug-related adverse event, patients (Total (n = 24), Grades 3–5) | Stomatitis, drug-related adverse event, patients (Total (n = 24), Grades 3–5) | Vomiting, drug-related adverse event, patients (Total (n = 24), Grades 3–5)
54.2%: eosinophilia related to MK-2206, percent of patients [1] | pyrexia related to MK-2206, percent of patients [1]
10/24 and 10: Diarrhea, drug-related adverse event, patients (Total (n = 24), All grades)
58.3%: stomatitis related to MK-2206, percent of patients [1]
